Counter-ions that a name gives are not always drawn.

The source of these data is paper PMC4169866 (Investigational New Drugs, 2014).

Assay [1] relates to RRM1 expression in Calu-6 xenografts. Put plainly: Western blot of RRM1 in Calu-6 xenograft tumors. The note with it: 150 mg/kg dose, Calu-6 tumors 24 h after last dose. It counts as in vivo, mice. As for the experimental part: (§1) When the mean tumor volume was approximately 150–300 mm^3, animals were randomized by tumor volume and the compound was administered. […] Gemcitabine was formulated in saline and administered by intraperitoneal injection. Tumor volume and body weight were measured twice weekly. When tumors were collected for biomarker analysis, the animals were asphyxiated with CO2 and the xenograft tumors excised, flash frozen in liquid nitrogen, and stored at −80 °C until analyzed. For analysis, tumor volume data were transformed to a log scale to equalize variance across time and treatment groups. The log volume data were analyzed with a 2-way repeated measures analysis of variance by time and treatment using the MIXED procedure in SAS software (version 9.2). The correlation model for the repeated measures was spatial power. Treated groups are compared to the control group at each time point.
For orientation: Immunoblotting shows a protein as a band on a membrane.

Assay [2] deals with Calu-6 lung xenografts. Put plainly: Subcutaneous Calu-6 xenograft antitumor activity. It counts as in vivo, mice. As to conditions: 50 mg/kg LY2835219 oral, 60 or 150 mg/kg gemcitabine i.p. As for the experimental part: (§2) All animal studies were performed in accordance with American Association for Laboratory Animal Care institutional guidelines, and all protocols were approved by the Eli Lilly and Company Animal Care and Use Committee. Tumor cell lines were grown, harvested, and resuspended in a 1:1 mixture of serum-free media and matrigel (BD Biosciences), and 5 × 10^6 cells were injected subcutaneously in the rear flank of 5-to-6-week-old CD1 nu/nu female mice (Charles River Laboratories for MV4-11, mice from Harlan Laboratories for others).
as §1, with “Treated groups are compared to the control group at each time point.” left out

Assay [3] has as its system colo-205 cells. Description: DNA content / G1 arrest assay, colo-205 (Acumen). It counts as cell-based, human. The note with it: for 2N cell population / 4N cell population / S cell population: Colo-205 cells. The protocol:
Details for the cellular assays are provided in the supplemental materials. Briefly, image-based assays (Acumen Explorer, TPP LabTech) were used for compound screening. […] After treatment, the cells were washed, fixed and stained with antibodies to detect phosphoproteins and Propidium Iodide to monitor DNA content. The plates were then analyzed on an Acumen Explorer (TTP Labtech). The IC50 and EC50 values are determined by curve fitting to a 4-parameter logistic for each output using ACTIVITY BASE™ software.
Fixed cells are blocked with 1% bovine serum albumin (BSA, Amersham cat # RPN412V) for 30 minutes. […] Image analysis is based on cellular fluorescent signals for identifying cells in different subpopulations. Assay outputs are a percentage of each identified subpopulations; percent phosphoRB positive, percent 2 N, and percent 4 N. The IC50 and EC50 values are determined by curve fitting to a 4-parameter logistic for each output using ACTIVITY BASE™.

Assay [4] relates to U2OS cells. Description: DNA content (cell cycle) in U2OS phenotypic assay. It counts as cell-based, human. The protocol: U20S cells are cultured in McCoy's 5A modified media (Invitrogen), supplemented with 10% FBS and plated in 96-well, flat-bottom plates at a density of 5,000 cells/well for incubation overnight. Compounds in DMSO stock solution are diluted serially 1:3 in McCoy's 5A media and incubated with cells for 16 hours for multiplexing pCTD/DNA content readouts. Cells are fixed with Prefer (Anatech LTD, MI) for 30 minutes at room temperature and permeated with 0.1% Triton-X 100 in PBS or cold methanol (-20°C) for 15 minutes, respectively. After blocking with 1% BSA/PBS for 30 min, cells are incubated with primary antibody (CTD p-Ser2, Covance) at 1:1000 dilution in 1% BSA/PBS containing 50 ug/ml RNAse ([…], Sigma) at 4°C overnight. […] Table S1 and Figure S1.

For assay [5], the system named is pCTD (pSer2) U2OS. Description: Cellular assay for inhibition of RNA polymerase CTD (Ser2) phosphorylation (pCTD), U2OS. The note with it: Homo sapiens, n=1. It counts as cell-based.
Method: U20S cells are cultured in McCoy’s 5A modified media (Invitrogen), supplemented with 10% FBS and plated in 96-well, flat-bottom plates at a density of 5,000 cells/well for incubation overnight. Compounds in DMSO stock solution are diluted serially 1:3 in McCoy’s 5A media and incubated with cells for 16 hours for multiplexing pCTD/DNA content readouts. Cells are fixed with Prefer (Anatech LTD, MI) for 30 minutes at room temperature and permeated with 0.1% Triton-X 100 in PBS or cold methanol (-20°C) for 15 minutes, respectively. After blocking with 1% BSA/PBS for 30 min, cells are incubated with primary antibody (CTD p-Ser2, Covance) at 1:1000 dilution in 1% BSA/PBS containing 50 ug/ml RNAse (R6513, Sigma) at 4°C overnight. […] The IC50 and EC50 values are determined by curve fitting to a 4-parameter logistic for each output using ACTIVITY BASE™.
The assay detects CDK9 activity through both the inhibition of phosphorylation ser2 of the C-terminal repeat domain (pCTD) of RNA polymerase II, and a CDK9-modulated G2/M arrest [accumulation of cells with 4N DNA content]
Assay [6] relates to Jeko1 MCL xenografts. Put plainly: Subcutaneous Jeko1 xenograft antitumor activity. It counts as in vivo, mice. The note with it: 100 mg/kg, day 45. As for the experimental part:
as §2
as §1, with “Treated groups are compared to the control group at each time point.” left out

Assay [7] has as its system Colo-205 colorectal xenografts. Description: Subcutaneous colo-205 xenograft antitumor activity. It counts as in vivo, mice. The note with it: Colo-205 colorectal. The protocol: as §2, §1
Assay [8] concerns U87 MG glioblastoma xenografts. Description: Subcutaneous U87 MG xenograft antitumor activity. It counts as in vivo, mice. As to conditions: 50 mg/kg qdx21, day 31. The protocol: as §2
as §1, with “Treated groups are compared to the control group at each time point.” left out

Assay [9] concerns MV4-11 AML xenografts. Put plainly: Subcutaneous MV4-11 xenograft antitumor activity. It counts as in vivo, mice. As to conditions: 50 mg/kg qdx21, day 49. The protocol: as §2
as §1, with “Treated groups are compared to the control group at each time point.” left out

Assay [10] concerns H460 lung xenografts. Description: Subcutaneous H460 xenograft antitumor activity. It counts as in vivo, mice. As to conditions: 50 mg/kg qdx21, day 35. The protocol:
as §2
as §1, with “Treated groups are compared to the control group at each time point.” left out

Regarding `Nc1ccn([C@@H]2O[C@H](CO)[C@@H](O)C2(F)F)c(=O)n1` [gemcitabine, 2′,2′-difluorodeoxycytidine hydrochloric salt], the “increase of RRM1 compared to vehicle” value in [1] turned out to be 75%. The “tumor growth inhibition, compound alone” value in assay [2] is “active in inhibiting tumor growth”.

The term EC50 denotes the concentration that produces a half-maximal response. For orientation: IC50 means the concentration that gives 50% inhibition. Read a high IC50 as weaker potency. On to `CN1CC[C@H](c2c(O)cc(O)c3c(=O)cc(-c4ccccc4Cl)oc23)[C@H](O)C1` [Flavopiridol], for which the 2N cell population is 54% in assay [3] (2.2 µM), 50% in assay [3] (6.6 µM), 22% in assay [4] (2.2 µM) and 23% in assay [4] (6.6 µM). For the same compound, the 4N cell population in [3] (2.2 µM) was 44%; in assay [3] (6.6 µM), 49%; in assay [4] (2.2 µM), 74%; in assay [4] (6.6 µM), 72%. Moreover, the S cell population in assay [3] (2.2 µM) was 2%; in [3] (6.6 µM), 1%; in assay [4] (2.2 µM), 4%; in [4] (6.6 µM), 5%. In [3] (Homo sapiens, COLO 205, read-out: G1 arrest in Colo205 (increase in cells with 2N DNA content) EC50), the EC50 is above 20000 nM. For the same compound, the IC50 in assay [5] came out at 147 nM.

Consider `CC(=O)c1c(C)c2cnc(Nc3ccc(N4CCNCC4)cn3)nc2n(C2CCCC2)c1=O` [PD0332991, 6-Acetyl-8-cyclopentyl-5-methyl-2-[[5-(1-piperazinyl)-2-pyridinyl]amino] pyrido[2,3-d] pyrimidin-7 (8H)-one], for which the “Percent delta T/C, percent regression” value is reported as 12% in assay [6]; 7% in [7] (50 mg/kg (schedule not given), day 39); −1% in assay [7] (100 mg/kg qdx21, day 35); 26% in assay [8]; 16% in assay [9]; 60% in assay [10].
